One may read the Ki as the equilibrium dissociation constant of an inhibitor or competing ligand from its target. A high value points to weaker binding.

Counter-ions that a name gives are not always drawn.

From patent publication US9278974B2, “Substituted pyrazolo[3,4-d]pyrimidine compounds, their preparation and use as sigma receptors ligands” (LABORATORIOS DEL DR. ESTEVE S.A., priority 2012, dated 2016) come the findings set out here.

T1 sequence (Q60492 whole entry): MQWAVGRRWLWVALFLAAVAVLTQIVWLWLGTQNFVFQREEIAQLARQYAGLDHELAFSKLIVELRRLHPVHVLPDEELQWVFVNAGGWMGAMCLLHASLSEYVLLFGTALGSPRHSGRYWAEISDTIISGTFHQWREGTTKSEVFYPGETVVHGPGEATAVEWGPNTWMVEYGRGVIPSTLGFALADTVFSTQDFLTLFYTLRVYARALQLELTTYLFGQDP

This assay has as its target T1, sigma-1 receptor (Cavia porcellus, UniProt Q60492).
T1 construct: Guinea pig brains were homogenized in 10 vols; (w/v) of Tris-HCl 50 mM 0.32 M sucrose, pH 7.4; from tissue; host or cells: guinea pig brain membranes
In words: Sigma-1 receptor binding assay, [3H]-(+)-pentazocine, guinea pig brain membranes. To be noted: radioligand [3H]-(+)-pentazocine 5.0 nM, 150 min at 37° C., nonspecific binding with 1 μM haloperidol. As for the experimental part:
Brain membrane preparation and binding assays for the […] were performed as described (DeHaven-Hudkins, D. L., L. C. Fleissner, and F. Y. Ford-Rice, 1992, Characterization of the binding of [^3H](+)pentazocine to α recognition sites in guinea pig brain, Eur. J. Pharmacol. 227, 371-378) with some modifications. Guinea pig brains were homogenized in 10 vols. (w/v) of Tris-HCl 50 mM 0.32 M sucrose, pH 7.4, with a Kinematica Polytron PT 3000 at 15000 r.p.m. for 30 s. The homogenate was centrifuged at 1000 g for 10 min at 4° C. and the supernatants collected and centrifuged again at 48000 g for 15 min at 4° C. The pellet was resuspended in 10 volumes of Tris-HCl buffer (50 mM, pH 7.4), incubated at 37° C. for 30 min, and centrifuged at 48000 g for 20 min at 4° C. Following this, the pellet was re-suspended in fresh Tris-HCl buffer (50 mM, pH 7.4) and stored on ice until use.
The radioligand used was [^3H]-(+)-pentazocine at 5.0 nM and the final volume was 200 μl. The incubation was initiated with the addition of 100 μl of membrane at a final tissue concentration of approximately 5 mg tissue net weight/mL and the incubation time was 150 m. at 37° C. After incubation, the membranes were collected onto pretreated glass fiber filterplate (MultiScreen-FC, Millipore), with polyethylenimine 0.1%. The filters were washed two times with 200 μl of washing buffer (50 mM Tris Cl, pH=7.4) and then 25 μl of Ecoscint H liquid scintillation cocktail were added. Microplates were allowed to set for several hours and then quantified by liquid scintillation spectrophotometry (1450 Microbeta, Wallac). Nonspecific binding was determined with 1 μM haloperidol.
On to `c1ccc(-c2ncnc3c2cnn3CCN2CCCCC2)cc1` [Example 1, 4-phenyl-1-(2-(piperidin-1-yl)ethyl)-1H-pyrazolo[3,4-d]pyrimidine], for which the inhibition constant (Ki) turned out to be 99.6 nM.

For the compound `Cc1ccccc1-c1ncnc2c1cnn2CCN1CCCCC1` [Example 2, 1-(2-(piperidin-1-yl)ethyl)-4-o-tolyl-1H-pyrazolo[3,4-d]pyrimidine], affinity was put at a Ki of 73.8 nM.

`Cc1cccc(-c2ncnc3c2cnn3CCN2CCCCC2)c1` [Example 3, 1-(2-(piperidin-1-yl)ethyl)-4-m-tolyl-1H-pyrazolo[3,4-d]pyrimidine hydrochloride] registered a Ki of 82.5 nM.

Compound `Cc1noc(C)c1-c1ncnc2c1cnn2CCN1CCCCC1` [Example 6, 3,5-dimethyl-4-(1-(2-(piperidin-1-yl)ethyl)-1H-pyrazolo[3,4-d]pyrimidin-4-yl)isoxazole hydrochloride] came in with a Ki of 72.4 nM.

For `COc1ncccc1-c1ncnc2c1cnn2CCN1CCCCC1` [Example 10, 4-(2-methoxypyridin-3-yl)-1-(2-(piperidin-1-yl)ethyl)-1H-pyrazolo[3,4-d]pyrimidine], the inhibition constant Ki was determined as 112 nM.

Compound `COc1ncccc1-c1ncnc2c1cnn2CCN1CCCCC1` [Example 11, 4-(2-methoxypyridin-3-yl)-1-(2-(piperidin-1-yl)ethyl)-1H-pyrazolo[3,4-d]pyrimidine (L)-tartrate] registered a Ki of 151 nM.

As for `CCOc1ccccc1-c1ncnc2c1cnn2CCN1CCCCC1` [Example 13, 4-(2-ethoxyphenyl)-1-(2-(piperidin-1-yl)ethyl)-1H-pyrazolo[3,4-d]pyrimidine hydrochloride], the affinity corresponds to a Ki of 300 nM.

In turn, `Fc1ccc(-c2ncnc3c2cnn3CCN2CCCCC2)cc1` [Example 14, 4-(4-fluorophenyl)-1-(2-(piperidin-1-yl)ethyl)-1H-pyrazolo[3,4-d]pyrimidine] displayed a Ki of 95.4 nM.

For `Cn1nc(C(F)(F)F)cc1-c1ncnc2c1cnn2CCN1CCCCC1` [Example 16, 4-(1-methyl-3-(trifluoromethyl)-1H-pyrazol-5-yl)-1-(2-(piperidin-1-yl)ethyl)-1H-pyrazolo[3,4-d]pyrimidine], the Ki was 137 nM.

For `Cc1cncc(-c2ncnc3c2cnn3CCN2CCCCC2)c1` [Example 18, 4-(5-methylpyridin-3-yl)-1-(2-(piperidin-1-yl)ethyl)-1H-pyrazolo[3,4-d]pyrimidine], affinity was put at a Ki of 447 nM.

For the compound `Clc1ccc(-c2ncnc3c2cnn3CCN2CCCCC2)s1` [Example 20, 4-(5-chlorothiophen-2-yl)-1-(2-(piperidin-1-yl)ethyl)-1H-pyrazolo[3,4-d]pyrimidine], the affinity, expressed as Ki, was 35 nM.

In turn, `Clc1ccc(-c2ncnc3c2cnn3CCN2CCCCC2)cc1` [Example 21, 4-(4-chlorophenyl)-1-(2-(piperidin-1-yl)ethyl)-1H-pyrazolo[3,4-d]pyrimidine] displayed a Ki of 42.6 nM.

The compound `Cc1ccc(Cl)c(-c2ncnc3c2cnn3CCN2CCCCC2)c1` [Example 25, 4-(2-chloro-5-methylphenyl)-1-(2-(piperidin-1-yl)ethyl)-1H-pyrazolo[3,4-d]pyrimidine] showed a Ki of 31.2 nM.

For `Cc1ccc(C)c(-c2ncnc3c2cnn3CCN2CCCCC2)c1` [Example 26, 4-(2,5-dimethylphenyl)-1-(2-(piperidin-1-yl)ethyl)-1H-pyrazolo[3,4-d]pyrimidine], the inhibition constant Ki stood at 55.4 nM.

With `Cn1cccc1-c1ncnc2c1cnn2CCN1CCCCC1` [Example 27, 4-(1-methyl-1H-pyrrol-2-yl)-1-(2-(piperidin-1-yl)ethyl)-1H-pyrazolo[3,4-d]pyrimidine], the Ki came to 31.5 nM.

`COc1cc(F)ccc1-c1ncnc2c1cnn2CCN1CCCCC1` [Example 28, 4-(4-fluoro-2-methoxyphenyl)-1-(2-(piperidin-1-yl)ethyl)-1H-pyrazolo[3,4-d]pyrimidine] yielded a Ki of 39.2 nM.

Consider `Cc1cc(F)ccc1-c1ncnc2c1cnn2CCN1CCCCC1` [Example 29, 4-(4-fluoro-2-methylphenyl)-1-(2-(piperidin-1-yl)ethyl)-1H-pyrazolo[3,4-d]pyrimidine], for which the Ki is 48.4 nM.

As for `Fc1ccc(-c2ncnc3c2cnn3CCN2CCCCC2)c(C(F)(F)F)c1` [Example 34, 4-(4-fluoro-2-(trifluoromethyl)phenyl)-1-(2-(piperidin-1-yl)ethyl)-1H-pyrazolo[3,4-d]pyrimidine], the inhibitory constant (Ki) was found to be 57 nM.

`Clc1ccccc1-c1ncnc2c1cnn2CCN1CCCCC1` [Example 35, 4-(2-chlorophenyl)-1-(2-(piperidin-1-yl)ethyl)-1H-pyrazolo[3,4-d]pyrimidine] had an inhibition constant Ki of 75.7 nM.

On to `c1nc(-c2cnsc2)c2cnn(CCN3CCCCC3)c2n1` [Example 36, 4-(1-(2-(piperidin-1-yl)ethyl)-1H-pyrazolo[3,4-d]pyrimidin-4-yl)isothiazole], for which the inhibition constant Ki was 475 nM.

In the case of `FC(F)(F)c1ccccc1-c1ncnc2c1cnn2CCN1CCCCC1` [Example 38, 1-(2-(piperidin-1-yl)ethyl)-4-(2-(trifluoromethyl)phenyl)-1H-pyrazolo[3,4-d]pyrimidine], the affinity, expressed as Ki, was 125 nM.

Take `Fc1ccc(-c2ncnc3c2cnn3CCN2CCCCC2)c(F)c1` [Example 39, 4-(2,4-difluorophenyl)-1-(2-(piperidin-1-yl)ethyl)-1H-pyrazolo[3,4-d]pyrimidine]: the Ki is 81.6 nM.

The compound `Fc1ccc(-c2ncnc3c2cnn3CCN2CCCCC2)c(Cl)c1` [Example 42, 4-(2-chloro-4-fluorophenyl)-1-(2-(piperidin-1-yl)ethyl)-1H-pyrazolo[3,4-d]pyrimidine] had an inhibition constant (Ki) of 27 nM.

`Fc1ccc(-c2ncnc3c2cnn3CCN2CCC(F)(F)CC2)c(Cl)c1` [Example 44, 4-(2-chloro-4-fluorophenyl)-1-(2-(4,4-difluoropiperidin-1-yl)ethyl)-1H-pyrazolo[3,4-d]pyrimidine] gave a Ki of 318 nM.

`Fc1cc(Cl)ccc1-c1ncnc2c1cnn2CCN1CCCCC1` [Example 46, 4-(4-chloro-2-fluorophenyl)-1-(2-(piperidin-1-yl)ethyl)-1H-pyrazolo[3,4-d]pyrimidine]: the affinity, expressed as Ki, was 112 nM.

As to `CN(CCn1ncc2c(-c3ccccc3Cl)ncnc21)Cc1ccc(F)cc1` [Example 47, 2-(4-(2-chlorophenyl)-1H-pyrazolo[3,4-d]pyrimidin-1-yl)-N-(4-fluorobenzyl)-N-methylethanamine], the Ki stood at 76.6 nM.

`CN(CCn1ncc2c(-c3ccnn3C)ncnc21)Cc1ccc(F)cc1` [Example 48, N-(4-fluorobenzyl)-N-methyl-2-(4-(1-methyl-1H-pyrazol-5-yl)-1H-pyrazolo[3,4-d]pyrimidin-1-yl)ethanamine] yielded a Ki of 34.1 nM.

As to `CN(CCn1ncc2c(-c3ccc(F)cc3Cl)ncnc21)Cc1ccc(F)cc1` [Example 49, 2-(4-(2-chloro-4-fluorophenyl)-1H-pyrazolo[3,4-d]pyrimidin-1-yl)-N-(4-fluorobenzyl)-N-methylethanamine], the Ki was found to be 61.7 nM.
